Results on two compounds are retold here after patent US20100130945A1, “TREATMENT OF TISSUE VIA APPLICATION OF MAGNETIC FIELD” (priority 2006, published 2010).

This assay has as its system isolated cardiac myocytes. Briefly: Ca2+ transients (indo-1 fluorescence ratio) in isolated cardiac myocytes in culture, with drug and 16 Hz alternating magnetic field. Format: cell-based, rat. The method, then: Cardiac myocytes were extracted in order to study intracellular free calcium ([Ca^2+]i) shifts as a result of exposure to alternating magnetic field. This was estimated from indo-1 fluorescence using the ratio method. […] The hearts were minced and then gently agitated in a solution of proteolytic enzymes, RDB. The RDB was diluted 1:100 in Ca^2+ and Mg^2+ free PBS at 25° C. for a few cycles of 10 minutes each, Dulbecco's modified Eagle's medium (DMEM) supplemented with inactivated 10% horse serum (Biological Industries, Kibbutz Beit Haemek, Israel), and 0.5% chick embryo extract was added to the supernatant suspensions containing dissociated cells. The mixture was centrifuged at 300 g for 5 minutes. The supernatant phase was discarded and the cells were resuspended in the same medium. The suspensions of the cells were diluted to 1.0×10^6 cells/ml and were placed in 35-mm plastic culture dishes on collagen/gelatin coated cover glasses. The culture was incubated in a humidified atmosphere of 5% CO2, 95% air at 37° C. All experiments were performed at day 4 in culture. In a second set of experiments the specificity of the myocyte ion channels (KATP) was tested by inducing exposure alternating magnetic field of 16 Hz, that were delivered for 10 minutes of base line (n=10). Following baseline recording, the channels were blocked by the addition to the dish 5 μM of Glibenclamide and alternating magnetic field was delivered for an additional 20 minutes. In the third setup of the experiment the amount of 5 μM of Glibenclamide was primarily added (n=10), to be followed by exposure to alternating magnetic field of 20 min. In the fourth phase of the experimental setup 3 μM of Nicorandil, a potassium channel opener (KCO) were added (n=10), following 10 minutes, alternating magnetic field was exposure was introduced for 20 minutes. In the fifth phase of the experiment alternating magnetic field was applied for 20 minutes followed by introduction of 3 μM of Nicorandil (n=5). Intracellular free calcium concentration [Ca^2+], was estimated from indo-1 fluorescence using the ratio method previously described before by Grynkiewicz et al (1985). Following incubation, the cells were rinsed twice with glucose enriched PBS and transferred to a chamber on the stage of a Zeiss inverted epifluorescent microscope. Indo-1-AM was excited at 355 nm and the emitted light was then split by a dichroic mirror to two photomultipliers, with input filters at 405 and 495 nm. The fluorescence ratio of 405/495 nm, which is proportional to [Ca2+] was fed into a computer program. The time integral of Ca^2+ Influx was determined as area under the curve via a program, which gives the integral during any specified time window. From this value the baseline offset, measured at the systolic and diastolic phase, were subtracted. Baseline data from calcium transients were normalized to 100 percent and all values were presented as percent change from baseline. Mean and SD were calculated. A P≦0.05 was considered statistically significant.

With `COc1ccc(Cl)cc1C(=O)NCCc1ccc(S(=O)(=O)NC(=O)NC2CCCCC2)cc1` [glibenclamide], the “change of amplitude of Ca2+ transients (widening) with glibenclamide” value (5 μM Glibenclamide added, before magnetic field, percent change from baseline, n=10, FIG. 8B) is “+30%±9%”. Moreover, the “change of amplitude of Ca2+ transients (narrowing) with glibenclamide following 20 minutes of alternating magnetic field” value (5 μM Glibenclamide then 20 min field of 16 Hz, 80 nT, n=10, FIG. 8C) was −24%±6%. The “effect on calcium ions efflux from myocytes in cultures following exposure to 16 Hz magnetic field” value (low intensities of 16 Hz magnetic field, KATP channel blocker) is “counteracting effect”.

Turning to `O=C(NCCO[N+](=O)[O-])c1cccnc1` [nicorandil], for the setting “3 μM Nicorandil added, before magnetic field, percent change from baseline, FIG. 9B”, the “change of amplitude of Ca2+ transients (narrowing) with nicorandil” value is recorded as −58%±7%. The “change of amplitude of Ca2+ transients (narrowing) with nicorandil following 20 minutes of alternating magnetic field” value (3 μM Nicorandil then 20 min field of 16 Hz, 80 nT, n=4, FIG. 9C) was −63%±3%. The “combination of magnetic field exposure and KCO administration” value (nicorandil plus alternating magnetic field, 15.95 Hz, FIGS. 9A-C) is listed as “synergistic effect”.
